# Experimental data taken from article PMC5622171 (Nature Communications, 2017).
# pKd: −log10 of the molar value.
# Columns and labels:
# Experiment in all cases: KINOMEscan kinase profiling
# Format in all cases: binding
# [1] = molecular target: T1, MEK6 (Homo sapiens, UniProt P52564); details: read-out: %Inhibition by 10 μM SPA70
# T1 construct: purchased DiscoverX (Ambit Biosciences) KINOMEscan
# Outline: (§1)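 KINOMEscan profiling followed a published protocol. Kinases whose inhibition exceeded a set cut-off were then tested in a dilution series beginning at 30 µM.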
# [2] = molecular target: T2, AXL (Homo sapiens, UniProt P30530); details: read-out: %Inhibition by 10 μM SPA70
# T2 construct: purchased DiscoverX (Ambit Biosciences) KINOMEscan
# Outline: as §1
# [3] = molecular target: T3, RIPK4 (Homo sapiens, UniProt P57078); details: read-out: %Inhibition by 10 μM SPA70
# T3 construct: purchased DiscoverX (Ambit Biosciences) KINOMEscan
# Outline: as §1
# [4] = molecular target: T4, BIKE (Homo sapiens, UniProt Q9NSY1); details: read-out: %Inhibition by 10 μM SPA70
# T4 construct: purchased DiscoverX (Ambit Biosciences) KINOMEscan
# Outline: as §1
# [5] = molecular target: T5, TAOK3 (Homo sapiens, UniProt Q9H2K8); details: read-out: %Inhibition by 10 μM SPA70
# T5 construct: purchased DiscoverX (Ambit Biosciences) KINOMEscan
# Outline: as §1
# [6] = molecular target: T6, CSNK1E (Homo sapiens, UniProt P49674); details: read-out: %Inhibition by 10 μM SPA70
# T6 construct: purchased DiscoverX (Ambit Biosciences) KINOMEscan
# Outline: as §1
# [7] = molecular target: T7, CHEK1 (Homo sapiens, UniProt O14757)
# T7 construct: purchased DiscoverX (Ambit Biosciences) KINOMEscan
# Outline: as §1
# [8] = molecular target: T8, PRKR (Homo sapiens, UniProt P19525)
# T8 construct: purchased DiscoverX (Ambit Biosciences) KINOMEscan
# Outline: as §1
# [9] = molecular target: T9, HIPK1 (Homo sapiens, UniProt Q86Z02); details: read-out: %Inhibition by 10 μM SPA70
# T9 construct: purchased DiscoverX (Ambit Biosciences) KINOMEscan
# Outline: as §1
# [10] = molecular target: T10, ITK (Homo sapiens, UniProt Q08881)
# T10 construct: purchased DiscoverX (Ambit Biosciences) KINOMEscan
# Outline: as §1
# [11] = molecular target: T11, TIE1 (Homo sapiens, UniProt P35590); details: read-out: %Inhibition by 10 μM SPA70
# T11 construct: purchased DiscoverX (Ambit Biosciences) KINOMEscan
# Outline: as §1
# [12] = molecular target: T12, TLK1 (Homo sapiens, UniProt Q9UKI8); details: read-out: %Inhibition by 10 μM SPA70
# T12 construct: purchased DiscoverX (Ambit Biosciences) KINOMEscan
# Outline: as §1
# [13] = molecular target: T13, YSK4 (Homo sapiens, UniProt Q56UN5); details: read-out: %Inhibition by 10 μM SPA70
# T13 construct: purchased DiscoverX (Ambit Biosciences) KINOMEscan
# Outline: as §1
# [14] = molecular target: T14, CSNK1A1 (Homo sapiens, UniProt P48729); details: read-out: %Inhibition by 10 μM SPA70
# T14 construct: purchased DiscoverX (Ambit Biosciences) KINOMEscan
# Outline: as §1
# [15] = molecular target: T15, GAK (Homo sapiens, UniProt O14976); details: read-out: %Inhibition by 10 μM SPA70
# T15 construct: purchased DiscoverX (Ambit Biosciences) KINOMEscan
# Outline: as §1
# [16] = molecular target: T16, PAK4 (Homo sapiens, UniProt O96013); details: read-out: %Inhibition by 10 μM SPA70
# T16 construct: purchased DiscoverX (Ambit Biosciences) KINOMEscan
# Outline: as §1
# [17] = molecular target: T17, CDK3 (Homo sapiens, UniProt Q00526)
# T17 construct: purchased DiscoverX (Ambit Biosciences) KINOMEscan
# Outline: as §1
# [18] = molecular target: T18, PIK3CA (Homo sapiens, UniProt P42336); details: read-out: %Inhibition by 10 μM SPA70
# T18 construct: purchased DiscoverX (Ambit Biosciences) KINOMEscan
# Outline: as §1
# [19] = molecular target: T19, CAMKK2 (Homo sapiens, UniProt Q96RR4); details: read-out: %Inhibition by 10 μM SPA70
# T19 construct: purchased DiscoverX (Ambit Biosciences) KINOMEscan
# Outline: as §1
# [20] = molecular target: T20, CDK5 (Homo sapiens, UniProt Q00535)
# T20 construct: purchased DiscoverX (Ambit Biosciences) KINOMEscan
# Outline: as §1
# [21] = molecular target: T21, GSK3A (Homo sapiens, UniProt P49840)
# T21 construct: purchased DiscoverX (Ambit Biosciences) KINOMEscan
# Outline: as §1
# [22] = molecular target: T22, BTK (Homo sapiens, UniProt Q06187)
# T22 construct: purchased DiscoverX (Ambit Biosciences) KINOMEscan
# Outline: as §1
# [23] = molecular target: T23, FLT1 (Homo sapiens, UniProt P17948); details: read-out: %Inhibition by 10 μM SPA70
# T23 construct: purchased DiscoverX (Ambit Biosciences) KINOMEscan
# Outline: as §1
# [24] = molecular target: T24, PRKG2 (Homo sapiens, UniProt Q13237); details: read-out: %Inhibition by 10 μM SPA70
# T24 construct: purchased DiscoverX (Ambit Biosciences) KINOMEscan
# Outline: as §1
# [25] = molecular target: T25, PIM3 (Homo sapiens, UniProt Q86V86); details: read-out: %Inhibition by 10 μM SPA70
# T25 construct: purchased DiscoverX (Ambit Biosciences) KINOMEscan
# Outline: as §1
# [26] = molecular target: T26, SIK (Homo sapiens, UniProt P57059)
# T26 construct: purchased DiscoverX (Ambit Biosciences) KINOMEscan
# Outline: as §1
# [27] = molecular target: T27, STK39 (Homo sapiens, UniProt Q9UEW8); details: read-out: %Inhibition by 10 μM SPA70
# T27 construct: purchased DiscoverX (Ambit Biosciences) KINOMEscan
# Outline: as §1
# [28] = molecular target: T28, NEK4 (Homo sapiens, UniProt P51957); details: read-out: %Inhibition by 10 μM SPA70
# T28 construct: purchased DiscoverX (Ambit Biosciences) KINOMEscan
# Outline: as §1
# [29] = molecular target: T29, RIOK2 (Homo sapiens, UniProt Q9BVS4); details: read-out: %Inhibition by 10 μM SPA70
# T29 construct: purchased DiscoverX (Ambit Biosciences) KINOMEscan
# Outline: as §1
# [30] = molecular target: T30, CASK (Homo sapiens, UniProt O14936); details: read-out: %Inhibition by 10 μM SPA70
# T30 construct: purchased DiscoverX (Ambit Biosciences) KINOMEscan
# Outline: as §1
# [31] = molecular target: T31, MAP4K5 (Homo sapiens, UniProt Q9Y4K4); details: read-out: %Inhibition by 10 μM SPA70
# T31 construct: purchased DiscoverX (Ambit Biosciences) KINOMEscan
# Outline: as §1
# [32] = molecular target: T32, MLK2 (Homo sapiens, UniProt Q02779); details: read-out: %Inhibition by 10 μM SPA70
# T32 construct: purchased DiscoverX (Ambit Biosciences) KINOMEscan
# Outline: as §1
# [33] = molecular target: T33, p38-alpha (Homo sapiens, UniProt Q16539)
# T33 construct: purchased DiscoverX (Ambit Biosciences) KINOMEscan
# Outline: as §1
# [34] = molecular target: T34, RPS6KA5(Kin.Dom.1-N-terminal) (Homo sapiens, UniProt O75582); details: read-out: %Inhibition by 10 μM SPA70
# T34 construct: RPS6KA5(Kin.Dom.1-N-terminal); purchased DiscoverX (Ambit Biosciences) KINOMEscan
# Outline: as §1
# [35] = molecular target: T35, CSF1R (Homo sapiens, UniProt P07333)
# T35 construct: purchased Ambit Biosciences, now part of DiscoveryX
# Outline: as §1
# [36] = molecular target: T36, CDC2L1 (Homo sapiens, UniProt P21127); details: read-out: %Inhibition by 10 μM SPA70
# T36 construct: purchased DiscoverX (Ambit Biosciences) KINOMEscan
# Outline: as §1
# [37] = molecular target: T37, RIPK5 (Homo sapiens, UniProt Q6XUX3); details: read-out: %Inhibition by 10 μM SPA70
# T37 construct: purchased DiscoverX (Ambit Biosciences) KINOMEscan
# Outline: as §1
# [38] = molecular target: T38, FGFR2 (Homo sapiens, UniProt P21802); details: read-out: %Inhibition by 10 μM SPA70
# T38 construct: purchased DiscoverX (Ambit Biosciences) KINOMEscan
# Outline: as §1
# [39] = molecular target: T39, ADCK3 (Homo sapiens, UniProt Q8NI60); details: read-out: %Inhibition by 10 μM SPA70
# T39 construct: purchased DiscoverX (Ambit Biosciences) KINOMEscan
# Outline: as §1
# [40] = molecular target: T40, ZAK (Homo sapiens, UniProt Q9NYL2); details: read-out: %Inhibition by 10 μM SPA70
# T40 construct: purchased DiscoverX (Ambit Biosciences) KINOMEscan
# Outline: as §1
# [41] = molecular target: T41, INSRR (Homo sapiens, UniProt P14616); details: read-out: %Inhibition by 10 μM SPA70
# T41 construct: purchased DiscoverX (Ambit Biosciences) KINOMEscan
# Outline: as §1
# [42] = read-out: %Inhibition by 10 μM SPA70
# T35 sequence (P07333 20-972): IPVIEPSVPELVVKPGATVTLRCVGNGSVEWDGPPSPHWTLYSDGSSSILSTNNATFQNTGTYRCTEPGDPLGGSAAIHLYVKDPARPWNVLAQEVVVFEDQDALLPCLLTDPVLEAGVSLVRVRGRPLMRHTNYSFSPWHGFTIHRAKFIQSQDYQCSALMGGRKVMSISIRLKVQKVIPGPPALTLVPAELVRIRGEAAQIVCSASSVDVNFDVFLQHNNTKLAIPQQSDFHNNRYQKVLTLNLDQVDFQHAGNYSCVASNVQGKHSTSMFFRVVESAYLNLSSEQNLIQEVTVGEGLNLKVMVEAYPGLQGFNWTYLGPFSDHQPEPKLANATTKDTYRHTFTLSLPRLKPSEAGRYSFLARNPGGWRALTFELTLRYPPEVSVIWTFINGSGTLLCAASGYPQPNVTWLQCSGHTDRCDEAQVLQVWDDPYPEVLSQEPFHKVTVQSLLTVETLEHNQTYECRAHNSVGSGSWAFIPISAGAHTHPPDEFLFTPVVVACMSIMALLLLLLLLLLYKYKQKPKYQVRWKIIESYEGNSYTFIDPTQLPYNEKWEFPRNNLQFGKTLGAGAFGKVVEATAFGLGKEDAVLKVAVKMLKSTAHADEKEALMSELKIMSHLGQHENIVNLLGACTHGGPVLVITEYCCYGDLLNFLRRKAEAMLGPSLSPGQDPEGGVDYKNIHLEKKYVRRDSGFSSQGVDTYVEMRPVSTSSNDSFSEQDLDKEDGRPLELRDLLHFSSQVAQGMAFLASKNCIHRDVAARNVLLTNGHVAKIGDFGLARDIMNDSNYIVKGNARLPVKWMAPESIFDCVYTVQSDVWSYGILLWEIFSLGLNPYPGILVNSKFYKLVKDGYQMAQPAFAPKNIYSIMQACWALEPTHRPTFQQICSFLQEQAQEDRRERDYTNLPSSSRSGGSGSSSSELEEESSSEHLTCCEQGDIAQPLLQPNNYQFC
# T20 sequence (Q00535 whole entry): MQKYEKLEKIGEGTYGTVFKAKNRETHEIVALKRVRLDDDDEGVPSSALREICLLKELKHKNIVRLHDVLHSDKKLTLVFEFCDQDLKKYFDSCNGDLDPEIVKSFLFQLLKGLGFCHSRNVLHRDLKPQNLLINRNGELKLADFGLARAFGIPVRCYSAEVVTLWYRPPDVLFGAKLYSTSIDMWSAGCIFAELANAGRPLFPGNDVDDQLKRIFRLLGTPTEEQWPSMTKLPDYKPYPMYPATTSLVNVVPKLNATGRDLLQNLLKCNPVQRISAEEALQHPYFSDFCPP
# T21 sequence (P49840 whole entry): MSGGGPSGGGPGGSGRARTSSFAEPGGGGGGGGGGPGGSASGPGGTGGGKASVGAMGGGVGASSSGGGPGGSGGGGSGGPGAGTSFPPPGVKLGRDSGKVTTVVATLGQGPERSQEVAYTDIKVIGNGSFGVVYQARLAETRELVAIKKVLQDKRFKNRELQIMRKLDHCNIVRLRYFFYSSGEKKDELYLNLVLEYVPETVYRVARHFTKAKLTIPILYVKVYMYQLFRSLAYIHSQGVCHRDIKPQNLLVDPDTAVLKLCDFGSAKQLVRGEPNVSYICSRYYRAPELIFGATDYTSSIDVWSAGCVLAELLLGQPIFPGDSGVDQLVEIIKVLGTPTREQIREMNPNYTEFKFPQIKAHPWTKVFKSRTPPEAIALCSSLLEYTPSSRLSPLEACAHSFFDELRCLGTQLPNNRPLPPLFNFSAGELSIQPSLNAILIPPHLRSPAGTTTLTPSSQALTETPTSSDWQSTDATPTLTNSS
# T36 sequence (P21127 whole entry): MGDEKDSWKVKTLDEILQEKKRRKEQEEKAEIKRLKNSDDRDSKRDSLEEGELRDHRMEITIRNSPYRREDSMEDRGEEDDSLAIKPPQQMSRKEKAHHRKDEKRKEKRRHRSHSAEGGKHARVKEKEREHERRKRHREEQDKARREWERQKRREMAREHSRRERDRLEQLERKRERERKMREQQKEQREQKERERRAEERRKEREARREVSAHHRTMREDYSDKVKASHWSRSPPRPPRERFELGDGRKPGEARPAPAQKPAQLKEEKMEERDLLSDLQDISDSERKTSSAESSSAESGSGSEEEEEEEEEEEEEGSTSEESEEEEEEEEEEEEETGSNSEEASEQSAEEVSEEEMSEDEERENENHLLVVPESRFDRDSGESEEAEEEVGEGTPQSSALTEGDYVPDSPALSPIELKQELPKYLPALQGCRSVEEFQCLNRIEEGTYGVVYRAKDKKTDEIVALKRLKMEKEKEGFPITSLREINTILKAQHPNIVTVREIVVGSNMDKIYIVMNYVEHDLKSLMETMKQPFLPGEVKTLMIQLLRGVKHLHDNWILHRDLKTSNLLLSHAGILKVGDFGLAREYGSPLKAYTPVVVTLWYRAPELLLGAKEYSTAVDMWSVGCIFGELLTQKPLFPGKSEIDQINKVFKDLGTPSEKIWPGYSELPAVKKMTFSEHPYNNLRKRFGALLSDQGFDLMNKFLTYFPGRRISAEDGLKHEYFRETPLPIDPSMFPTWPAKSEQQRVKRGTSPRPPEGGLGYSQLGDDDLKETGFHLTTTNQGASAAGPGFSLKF
# T11 sequence (P35590 22-1138): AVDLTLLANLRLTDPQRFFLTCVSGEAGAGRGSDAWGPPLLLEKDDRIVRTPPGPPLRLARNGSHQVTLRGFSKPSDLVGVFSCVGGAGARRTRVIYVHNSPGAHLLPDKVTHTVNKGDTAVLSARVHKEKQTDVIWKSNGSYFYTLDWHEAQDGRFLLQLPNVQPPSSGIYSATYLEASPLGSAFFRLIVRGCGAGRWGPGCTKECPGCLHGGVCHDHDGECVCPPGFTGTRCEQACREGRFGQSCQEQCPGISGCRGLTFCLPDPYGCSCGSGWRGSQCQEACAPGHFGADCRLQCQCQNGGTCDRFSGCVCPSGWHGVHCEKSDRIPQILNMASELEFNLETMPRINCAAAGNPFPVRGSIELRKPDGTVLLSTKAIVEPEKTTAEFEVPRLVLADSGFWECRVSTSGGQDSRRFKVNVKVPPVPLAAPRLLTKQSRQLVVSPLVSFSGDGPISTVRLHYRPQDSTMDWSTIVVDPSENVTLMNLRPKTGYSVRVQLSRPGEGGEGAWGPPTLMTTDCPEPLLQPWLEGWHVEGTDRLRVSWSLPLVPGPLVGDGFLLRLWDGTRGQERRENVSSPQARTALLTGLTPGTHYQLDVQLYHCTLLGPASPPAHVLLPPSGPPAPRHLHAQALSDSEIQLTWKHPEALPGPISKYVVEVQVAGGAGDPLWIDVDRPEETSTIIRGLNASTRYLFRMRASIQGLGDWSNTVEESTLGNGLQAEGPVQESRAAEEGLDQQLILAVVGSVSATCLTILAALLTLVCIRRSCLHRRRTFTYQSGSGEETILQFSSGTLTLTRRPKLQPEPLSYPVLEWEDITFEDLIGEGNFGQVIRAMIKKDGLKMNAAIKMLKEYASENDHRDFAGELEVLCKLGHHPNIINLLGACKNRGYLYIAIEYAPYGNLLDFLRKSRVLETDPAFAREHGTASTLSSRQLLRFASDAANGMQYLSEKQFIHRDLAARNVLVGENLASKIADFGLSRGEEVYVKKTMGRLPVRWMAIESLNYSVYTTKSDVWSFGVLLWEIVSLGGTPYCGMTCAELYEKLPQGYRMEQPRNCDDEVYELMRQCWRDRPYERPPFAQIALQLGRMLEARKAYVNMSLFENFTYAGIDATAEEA
# T37 sequence (Q6XUX3 whole entry): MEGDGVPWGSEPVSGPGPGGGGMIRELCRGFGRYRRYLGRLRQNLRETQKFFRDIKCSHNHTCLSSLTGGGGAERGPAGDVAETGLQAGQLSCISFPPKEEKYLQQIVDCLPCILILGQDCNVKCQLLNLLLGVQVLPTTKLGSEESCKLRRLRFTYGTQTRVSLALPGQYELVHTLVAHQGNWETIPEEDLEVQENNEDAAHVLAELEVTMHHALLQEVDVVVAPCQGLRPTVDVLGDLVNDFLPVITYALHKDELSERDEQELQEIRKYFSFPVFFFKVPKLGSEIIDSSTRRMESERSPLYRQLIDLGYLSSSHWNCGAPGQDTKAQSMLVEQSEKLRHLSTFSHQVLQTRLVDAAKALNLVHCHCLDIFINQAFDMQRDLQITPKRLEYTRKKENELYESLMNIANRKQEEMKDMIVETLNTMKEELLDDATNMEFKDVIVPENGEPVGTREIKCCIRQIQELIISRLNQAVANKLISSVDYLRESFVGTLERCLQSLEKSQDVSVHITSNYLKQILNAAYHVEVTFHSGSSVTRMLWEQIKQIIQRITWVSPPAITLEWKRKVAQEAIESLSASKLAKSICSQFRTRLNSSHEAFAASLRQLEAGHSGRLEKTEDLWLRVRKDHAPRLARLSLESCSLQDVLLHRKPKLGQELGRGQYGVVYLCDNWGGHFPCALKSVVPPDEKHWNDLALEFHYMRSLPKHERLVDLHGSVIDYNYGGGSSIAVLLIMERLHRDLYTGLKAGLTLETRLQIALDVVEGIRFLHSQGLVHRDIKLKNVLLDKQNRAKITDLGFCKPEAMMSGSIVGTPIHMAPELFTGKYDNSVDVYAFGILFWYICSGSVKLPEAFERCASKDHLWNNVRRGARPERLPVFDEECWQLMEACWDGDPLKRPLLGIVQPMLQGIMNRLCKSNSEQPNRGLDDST
# T14 sequence (P48729 whole entry): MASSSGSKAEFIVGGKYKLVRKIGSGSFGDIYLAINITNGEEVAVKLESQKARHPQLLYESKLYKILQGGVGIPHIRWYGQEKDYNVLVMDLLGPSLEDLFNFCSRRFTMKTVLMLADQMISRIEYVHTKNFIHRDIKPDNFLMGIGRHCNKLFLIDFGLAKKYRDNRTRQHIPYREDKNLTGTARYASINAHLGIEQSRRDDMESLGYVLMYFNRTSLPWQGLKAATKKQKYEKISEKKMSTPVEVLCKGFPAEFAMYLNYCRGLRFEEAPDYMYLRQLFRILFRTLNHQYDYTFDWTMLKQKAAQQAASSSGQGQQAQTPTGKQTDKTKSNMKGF
structure (smiles),measurement,setting,value
COc1ccc(OC)c(-n2nnc(S(=O)(=O)c3ccc(C(C)(C)C)cc3)c2C)c1 [SPA70],inhibition at 10 µM,[1],0%
same,inhibition at 10 µM,[2],0%
same,inhibition at 10 µM,[3],0%
same,inhibition at 10 µM,[4],35%
same,inhibition at 10 µM,[5],2%
same,inhibition at 10 µM,[6],0%
same,%Inhibition by 10 μM SPA70,[7],8%
same,%Inhibition by 10 μM SPA70,[8],26%
same,inhibition at 10 µM,[9],32%
same,%Inhibition by 10 μM SPA70,[10],0%
same,inhibition at 10 µM,[11],0%
same,inhibition at 10 µM,[12],23%
same,inhibition at 10 µM,[13],0%
same,inhibition at 10 µM,[14],1%
same,inhibition at 10 µM,[15],3%
same,inhibition at 10 µM,[16],0%
same,%Inhibition by 10 μM SPA70,[17],3%
same,inhibition at 10 µM,[18],0%
same,inhibition at 10 µM,[19],0%
same,%Inhibition by 10 μM SPA70,[20],not inhibited
same,inhibition at 10 µM,[20]; [42],0%
same,%Inhibition by 10 μM SPA70,[21],not inhibited
same,inhibition at 10 µM,[21]; [42],0%
same,%Inhibition by 10 μM SPA70,[22],23%
same,inhibition at 10 µM,[23],0%
same,inhibition at 10 µM,[24],12%
same,inhibition at 10 µM,[25],0%
same,%Inhibition by 10 μM SPA70,[26],0%
same,inhibition at 10 µM,[27],7%
same,inhibition at 10 µM,[28],21%
same,inhibition at 10 µM,[29],0%
same,inhibition at 10 µM,[30],9%
same,inhibition at 10 µM,[31],0%
same,inhibition at 10 µM,[32],0%
same,%Inhibition by 10 μM SPA70,[33],0%
same,inhibition at 10 µM,[34],14%
same,pKd,[35]; 11-point 3-fold serial dilutions starting from 30 µM,5.40
same,inhibition at 10 µM,[35]; [42],63%
same,inhibition at 10 µM,[36],0%
same,inhibition at 10 µM,[37],24%
same,inhibition at 10 µM,[38],0%
same,inhibition at 10 µM,[39],0%
same,inhibition at 10 µM,[40],0%
same,inhibition at 10 µM,[41],0%
